In patent US7312181B2, “Acylated thiosemicarbazides as herbicides” (Cropsolution, Inc., priority 2005, dated 2007):

Test system: Arabidopsis thaliana
Assay: Plate-based in vivo herbicidal screen, Arabidopsis thaliana
Details: 192 h, seeds in 96-well plate, 27° C., 8 days, continuous fluorescent lighting, scored by visual inspection
Description: Plate-based in vivo screens were used to identify compounds with herbicidal activity. Three species of plants were used in screening: Arabidopsis thaliana, Agrostis sp. and Nicotinia tabacum (common tobacco). Test compounds in 1 μL of dimethylsulfoxide (DMSO) were delivered to individual wells of a 96-well microtiter plate. Growth media containing 10-15 seeds per 100 uL were then added. The growth media consisted of Murashige and Skoog Basal salt mixture, and 0.15% low melt agarose, all at a pH 6.2. The seeds remained neutrally buoyant and were easily pipettable at this concentration of low melt agarose. Each plate contained a column of untreated control wells in order to determine the false positive rate. The plates were covered and sealed and incubated at 27° C. for 8 days under continuous fluorescent lighting (155 umol/m^2/s). The plates were scored for herbicidal activity by visual inspection. Observed symptomology included growth inhibition, bleaching, leaf curling, and root growth inhibition. Six commercial herbicide standards were run concurrently with the experimental compounds as internal controls for assay sensitivity and plant response. The standards are described in Table 1 with their biochemical mode of action. The herbicidal activity of compositions in the present invention, presented as EC90 concentrations in the Arabidopsis thaliana screen, is tabulated in Table 2.

Structure (SMILES) | EC90 [nM]
O=C(Nc1cccc(C(=O)NNC(=S)Nc2ccccc2Cl)c1Cl)c1cccc(C(F)(F)F)c1 [Compound 14, 4-(2-Chlorophenyl)-1-[2-chloro-3-(3-trifluoromethylbenzamido)-benzoyl]-thiosemicarbazide] | 300
O=C(NNC(=S)Nc1ccccc1Cl)c1cccc(NC(=O)c2cccc(Cl)c2)c1 [Compound 2, 1-[3-(3-Chlorobenzamido)-benzoyl]-4-(2-chlorophenyl)-thiosemicarbazide] | 100
O=C(NNC(=S)Nc1ccccc1Cl)c1cccc(NC(=O)c2cc(F)ccc2F)c1 [Compound 22, 4-(2-Chlorophenyl)-1-[3-(2,5-difluorobenzamido)-benzoyl]-thiosemicarbazide] | 50
O=C(Nc1cccc(C(=O)NNC(=S)Nc2ccccc2Cl)c1Cl)c1cccc(Cl)c1 [Compound 3, 1-[2-Chloro-3-(3-chloro-benzamido)-benzoyl]-4-(2-chlorophenyl)-thiosemicarbazide] | 3300
O=C(NNC(=S)Nc1ccccc1F)c1cccc(NC(=O)c2cccc(Cl)c2)c1 [Compound 9, 1-[3-(3-Chlorobenzamido)-benzoyl]-4-(2-fluorophenyl)-thiosemicarbazide] | 50
O=C(NNC(=S)Nc1ccccc1C(F)(F)F)c1cccc(NC(=O)c2cccc(Cl)c2)c1 [Compound 7, 1-[3-(3-Chlorobenzamido)-benzoyl]-4-(2-trifluoromethylphenyl)-thiosemicarbazide] | 1200
O=C(NNC(=S)Nc1ccccc1Cl)c1ccc(Cl)c(NC(=O)c2cccc(C(F)(F)F)c2)c1 [Compound 11, 4-(2-Chlorophenyl)-1-[4-chloro-3-(3-trifluoromethylbenzamido)-benzoyl]-thiosemicarbazide] | 3300
Cc1c(NC(=O)c2cccc(Cl)c2)cccc1C(=O)NNC(=S)Nc1ccccc1Cl [Compound 4, 1-[3-(3-Chlorobenzamido)-2-methylbenzoyl]-4-(2-chloro-phenyl)-thiosemicarbazide] | 300
O=C(NNC(=S)Nc1ccccc1)c1cccc(NC(=O)c2cccc(Cl)c2)c1 [Compound 6, 1-[3-(3-Chlorobenzamido)-benzoyl]-4-phenyl-thiosemicarbazide] | 150
O=C(NNC(=S)Nc1ccccc1Cl)c1cccc(NC(=O)c2cccc(C(F)(F)F)c2)c1 [Compound 12, 4-(2-Chlorophenyl)-1[3-(3-trifluoromethylbenzamido)-benzoyl]-thiosemicarbazide] | 300
O=C(NNC(=S)Nc1ccccc1Cl)c1cccc(NC(=O)c2cccc(F)c2)c1 [Compound 23, 4-(2-Chlorophenyl)-1-[3-(3-fluorobenzamido)-benzoyl]-thiosemicarbazide] | 50
